Data as given in patent publication US11584742B2 (MASARYKOVA UNIVERZITA, priority 2018, dated 2023).
pIC50: −log10 of the molar value.

Biological target: T1, MRE11 (Homo sapiens, UniProt P49959)
T1 sequence (P49959 1-708): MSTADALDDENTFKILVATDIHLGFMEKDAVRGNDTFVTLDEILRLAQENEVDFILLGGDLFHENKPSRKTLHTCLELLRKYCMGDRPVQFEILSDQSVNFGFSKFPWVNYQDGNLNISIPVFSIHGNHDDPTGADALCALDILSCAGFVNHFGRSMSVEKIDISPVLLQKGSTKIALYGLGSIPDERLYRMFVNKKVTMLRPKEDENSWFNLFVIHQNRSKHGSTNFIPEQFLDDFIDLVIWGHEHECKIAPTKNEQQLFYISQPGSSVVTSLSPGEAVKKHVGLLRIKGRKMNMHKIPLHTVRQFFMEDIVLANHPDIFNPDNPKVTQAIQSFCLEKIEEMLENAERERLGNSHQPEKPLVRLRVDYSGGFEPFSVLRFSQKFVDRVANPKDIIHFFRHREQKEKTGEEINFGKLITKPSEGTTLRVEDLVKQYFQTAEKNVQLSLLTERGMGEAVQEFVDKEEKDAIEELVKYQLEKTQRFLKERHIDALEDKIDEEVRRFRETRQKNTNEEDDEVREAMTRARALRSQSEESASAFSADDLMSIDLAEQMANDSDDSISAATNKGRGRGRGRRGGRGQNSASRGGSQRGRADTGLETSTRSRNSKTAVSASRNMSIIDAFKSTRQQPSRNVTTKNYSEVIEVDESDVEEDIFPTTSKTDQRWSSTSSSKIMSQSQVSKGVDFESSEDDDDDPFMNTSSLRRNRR
Experiment: HTS nuclease assay (cleavage of CY5/BBQ-quenched 5' overhang DNA substrate)
Type: biochemical
Conditions: in vitro HTS nuclease assay; 18 nM MRE11, 40 nM DNA substrate; analysis at t=4 h
Method: DNA Substrate Preparation
The DNA substrate is prepared by mixing the oligonucleotides listed below in a 1:1 ratio to reach a final concentration of 6 μM in a buffer containing 50 mM Tris pH 7.5, 100 mM NaCl and 8 mM MgCl2.
This substrate is a 5′ overhang, which is a preferred substrate of MRE11. […] The fluorescence increases upon substrate cleavage by MRE11, when separation of the two labels occur.
The conditions of the assay are as follows:
Total reaction volume: 5 μL
DNA substrate concentration in the reaction: 40 nM
Inhibitor concentration range tested: 7 nM-50 μM
Each plate contains a series of high and low signal control wells, where no compound is added:
High signal: MRE11+DNA substrate
Low signal: DNA substrate only
These are used during data evaluation.
Two extra assay controls:
1) To check whether unwinding of DNA by the compounds alone occurs.
The DNA substrate [CY5+BBQ(650)] is mixed with the compounds with no protein present.
The CY5 single stranded oligo is mixed with the compounds with no protein present.
The layout of the plates is created by the in-house software (CZ-Openscreen Prague) and this information is transferred to the robotic HTS station.
The reaction is started by the addition of DNA and the reaction time is counted from that moment, including a 15 min delay. Ten timepoints are measured:
The assay data analysis was performed at t=4 h. This corresponds to the time when the reaction is close to its maximum.
The data analysis was performed using the in-house software to obtain IC50 for each compound.

SMILES	pIC50
CC(C)(C)c1ccc(-c2csc(NC(=O)/C(C#N)=C/c3cc(Cl)c(O)c(Cl)c3)n2)cc1 [Preparative Example 224, (E)-N-(4-(4-(tert-butyl)phenyl)thiazol-2-yl)-2-cyano-3-(3,5-dichloro-4-hydroxyphenyl)acrylamide]	5.00 to 5.70
Cc1cc(/C=C(\C#N)C(=O)Nc2nc(-c3ccccn3)cs2)cc(C)c1O [Preparative Example 248, (E)-2-cyano-3-(4-hydroxy-3,5-dimethylphenyl)-N-(4-(pyridin-2-yl)thiazol-2-yl)acrylamide]	4.05 to 5.00
N#C/C(=C\c1cc(Br)c(O)c(Br)c1)C(=O)Nc1nc(-c2ccccn2)cs1 [Preparative Example 249, (E)-2-cyano-3-(3,5-dibromo-4-hydroxyphenyl)-N-(4-(pyridin-2-yl)thiazol-2-yl)acrylamide]	> 5.70
Cc1cc(/C=C(\C#N)C(=O)Nc2nc(-c3ncccc3F)cs2)cc(C)c1O [Preparative Example 250, (E)-2-cyano-N-(4-(3-fluoropyridin-2-yl)thiazol-2-yl)-3-(4-hydroxy-3,5-dimethylphenyl)acrylamide]	4.05 to 5.00
N#C/C(=C\c1cc(Br)c(O)c(Br)c1)C(=O)Nc1nc(-c2ncccc2F)cs1 [Preparative Example 251, (E)-2-cyano-3-(3,5-dibromo-4-hydroxyphenyl)-N-(4-(3-fluoropyridin-2-yl)thiazol-2-yl)acrylamide]	> 5.70
N#C/C(=C\c1cc(Cl)c(O)c(Cl)c1)C(=O)Nc1nc(-c2ncccc2F)cs1 [Preparative Example 252, (E)-2-cyano-3-(3,5-dichloro-4-hydroxyphenyl)-N-(4-(3-fluoropyridin-2-yl)thiazol-2-yl)acrylamide]	> 5.70
N#C/C(=C\c1ccc(O)c(O)c1)C(=O)Nc1ncc(-c2cnccn2)s1 [Preparative Example 262, (E)-2-cyano-3-(3,4-dihydroxyphenyl)-N-(5-(pyrazin-2-yl)thiazol-2-yl)acrylamide]	4.05 to 5.00
N#C/C(=C\c1ccc(O)c(O)c1)C(=O)Nc1nc(-c2ccccn2)c(-c2cnccn2)s1 [Preparative Example 263, (E)-2-cyano-3-(3,4-dihydroxyphenyl)-N-(5-(pyrazin-2-yl)-4-(pyridin-2-yl)thiazol-2-yl)acrylamide]	> 5.70
N#C/C(=C\c1ccc(O)c(O)c1)C(=O)Nc1nc(-c2cccc(N3CCOCC3)n2)cs1 [Preparative Example 264, (E)-2-cyano-3-(3,4-dihydroxyphenyl)-N-(4-(6-morpholinopyridin-2-yl)thiazol-2-yl)acrylamide]	5.00 to 5.70
N#C/C(=C\c1ccc(O)c(O)c1)C(=O)Nc1nc(-c2ccc(N3CCOCC3)nc2)cs1 [Preparative Example 265, (E)-2-cyano-3-(3,4-dihydroxyphenyl)-N-(4-(6-morpholinopyridin-3-yl)thiazol-2-yl)acrylamide]	5.00 to 5.70
N#C/C(=C\c1ccc(O)c(O)c1)C(=O)Nc1nc(-c2ncc(N3CCOCC3)cc2F)cs1 [Preparative Example 270, (E)-2-cyano-3-(3,4-dihydroxyphenyl)-N-(4-(3-fluoro-5-morpholinopyridin-2-yl)thiazol-2-yl)acrylamide]	> 5.70
N#C/C(=C\c1cc(Br)c(O)c(Br)c1)C(=O)Nc1nc(-c2ncc(N3CCOCC3)cc2F)cs1 [Preparative Example 271, (E)-2-cyano-3-(3,5-dibromo-4-hydroxyphenyl)-N-(4-(3-fluoro-5-morpholinopyridin-2-yl)thiazol-2-yl)acrylamide]	> 5.70
N#C/C(=C\c1cc(O)c(O)c(Br)c1)C(=O)Nc1nc(-c2ncc(N3CCOCC3)cc2F)cs1 [Preparative Example 272, (E)-3-(3-bromo-4,5-dihydroxyphenyl)-2-cyano-N-(4-(3-fluoro-5-morpholinopyridin-2-yl)thiazol-2-yl)acrylamide]	> 5.70
N#C/C(=C\c1cc(Cl)c(O)c(Cl)c1)C(=O)Nc1nc(Cc2ccccc2)cs1 [Preparative Example 275, (E)-N-(4-benzylthiazol-2-yl)-2-cyano-3-(3,5-dichloro-4-hydroxyphenyl)acrylamide]	4.05 to 5.00

Continued, values first:

pIC50	SMILES
5.00 to 5.70	N#C/C(=C\c1ccc(O)c(Br)c1)C(=O)Nc1nc(-c2ccccc2)cs1 [Preparative Example 202, (E)-3-(3-bromo-4-hydroxyphenyl)-2-cyano-N-(4-phenylthiazol-2-yl)acrylamide]
4.05 to 5.00	N#C/C(=C\c1ccc(O)c(C(=O)O)c1)C(=O)Nc1nc(-c2ccccc2)cs1 [Preparative Example 254, (E)-5-(2-cyano-3-oxo-3-((4-phenylthiazol-2-yl)amino)prop-1-en-1-yl)-2-hydroxybenzoic acid]
4.05 to 5.00	N#C/C(=C\c1ccc(O)c(C(N)=O)c1)C(=O)Nc1nc(-c2ccccc2)cs1 [Preparative Example 255, (E)-5-(2-cyano-3-oxo-3-((4-phenylthiazol-2-yl)amino)prop-1-en-1-yl)-2-hydroxybenzamide]
4.05 to 5.00	N#C/C(=C\c1ccc(O)cc1Br)C(=O)Nc1nc(-c2ccccc2)cs1 [Preparative Example 256, (E)-3-(2-bromo-4-hydroxyphenyl)-2-cyano-N-(4-phenylthiazol-2-yl)acrylamide]
5.00 to 5.70	COC(=O)c1ccc(/C=C(\C#N)C(=O)Nc2nc(-c3ccccc3)cs2)cc1O [Preparative Example 258, Methyl (E)-4-(2-cyano-3-oxo-3-((4-phenylthiazol-2-yl)amino)prop-1-en-1-yl)-2-hydroxybenzoate]
5.00 to 5.70	N#C/C(=C\c1ccc(C(=O)O)c(O)c1)C(=O)Nc1nc(-c2ccccc2)cs1 [Preparative Example 259, (E)-4-(2-cyano-3-oxo-3-((4-phenylthiazol-2-yl)amino)prop-1-en-1-yl)-2-hydroxybenzoic acid]
5.00 to 5.70	N#C/C(=C\c1ccc(O)c(CO)c1)C(=O)Nc1nc(-c2ccccc2)cs1 [Preparative Example 260, (E)-2-cyano-3-(4-hydroxy-3-(hydroxymethyl)phenyl)-N-(4-phenylthiazol-2-yl)acrylamide]
> 5.70	N#C/C(=C\c1ccc(O)c(O)c1)C(=O)Nc1nc(C(=O)c2ccccc2)cs1 [Preparative Example 261, (E)-N-(4-benzoylthiazol-2-yl)-2-cyano-3-(3,4-dihydroxyphenyl)acrylamide]
> 5.70	N#C/C(=C\c1cc(O)c(O)c(Br)c1)C(=O)Nc1nc(-c2ccccc2)cs1 [Preparative Example 266, (E)-3-(3-bromo-4,5-dihydroxyphenyl)-2-cyano-N-(4-phenylthiazol-2-yl)acrylamide]
> 5.70	N#C/C(=C\c1cc(O)c(O)c(F)c1)C(=O)Nc1nc(-c2ccccc2)cs1 [Preparative Example 267, (E)-2-cyano-3-(3-fluoro-4,5-dihydroxyphenyl)-N-(4-phenylthiazol-2-yl)acrylamide]
4.05 to 5.00	COc1cc(/C=C(\C#N)C(=O)Nc2nc(-c3ccccc3)cs2)cc(C#N)c1O [Preparative Example 268, (E)-2-cyano-3-(3-cyano-4-hydroxy-5-methoxyphenyl)-N-(4-phenylthiazol-2-yl)acrylamide]
> 5.70	N#C/C(=C\c1cc(O)c(O)c(C#N)c1)C(=O)Nc1nc(-c2ccccc2)cs1 [Preparative Example 269, (E)-2-cyano-3-(3-cyano-4,5-dihydroxyphenyl)-N-(4-phenylthiazol-2-yl)acrylamide]
> 5.70	N#C/C(=C\c1ccc(O)c(O)c1)C(=O)Nc1nc(Cc2ccccc2)cs1 [Preparative Example 273, (E)-N-(4-benzylthiazol-2-yl)-2-cyano-3-(3,4-dihydroxyphenyl)acrylamide]
5.00 to 5.70	N#C/C(=C\c1cc(Br)c(O)c(Br)c1)C(=O)Nc1nc(Cc2ccccc2)cs1 [Preparative Example 276, (E)-N-(4-benzylthiazol-2-yl)-2-cyano-3-(3,5-dibromo-4-hydroxyphenyl)acrylamide]
